Results published in patent publication US9605241B2, “Induction and stabilization of enzymatic activity in microorganisms” (Georgia State University Research Foundation, Inc., priority 2006, dated 2017).

Legend:
asparaginase I [1] = assay: Asparaginase I production on supplemented medium; assay type: cell-based; conditions: asparagine and glutamine added 3.8 mM
Procedure: The induction of asparaginase I production in various nitrile hydratase producing microorganisms was evaluated. All strains were grown on YEMEA medium containing 7.5 g/L of urea and 10 ppm cobalt (provided as cobalt chloride) supplemented with asparagine (ASN), glutamine (GLN), or both asparagine and glutamine. The asparagine and glutamine were added 3.8 mM. As a comparative, enzyme production was also evaluated with supplementation was with acrylonitrile (AN), acrylamide (AMD) or acrylonitrile and acrylamide. Growth temperature was in the range of 26° C. to 30° C.

nitrile hydratase = assay: Nitrile hydratase induction by inducers (Example 1); assay type: cell-based, Rhodococcus sp., strain DAP 96253; conditions: Table 1 comparison
Procedure: The induction of nitrile hydratase activity and amidase activity in Rhodococcus sp., strain DAP 96253, was evaluated using multiple types of inducers (1000 ppm). Three different samples were cultured in YEMEA medium containing 10 ppm cobalt and 7.5 g/L urea and supplemented with acrylonitrile, asparagine, or glutamine. The specific nitrile hydratase activity and the specific amidase activity in each sample was evaluated, and the results are provided below in Table 1, with activities provided in units/mg cdw (cell dry weight). One unit of nitrile hydratase activity relates to the ability to convert 1 Arnol of acrylonitrile to its corresponding amide per minute, per milligram of cells (dry weight) at a of pH 7.0 and a temperature of 30° C. One unit of amidase activity relates to the ability to convert […] of acrylamide to its corresponding acid per minute, per milligram of cells (dry weight) pH of 7.0 and a temperature of 30° C.

asparaginase I [2] = assay: Effect of inducer and media composition on asparaginase I; assay type: cell-based; conditions: Rhodococcus sp. DAP 96253; inducer 1000 ppm
Procedure: Testing was performed to evaluate the effect on asparaginase I activity based upon the inducer used. In particular, testing was performed using asparagine, glutamine, succinonitrile, and isovaleronitrile as inducers (all added at 1000 ppm each).

| SMILES | ability to induce nitrile hydratase activity compared with acrylonitrile (nitrile hydratase) | ability to induce asparaginase I activity (in words) (asparaginase I [2]) | other results |
| --- | --- | --- | --- |
| C=CC#N [Acrylonitrile, acrylonitrile] |  |  | Asparaginase I Level Based on Growth Medium Supplementation (asparaginase I [1]; Pseudomonas chloroaphis ATCC 13985, 26 °C): 2 Units/mg cdw; Asparaginase I Level Based on Growth Medium Supplementation (asparaginase I [1]; Rhodococcus rhodochrous DAP 96622 ATCC 55898, 26 °C): 8.2 Units/mg cdw; Asparaginase I Level Based on Growth Medium Supplementation (asparaginase I [1]; Rhodococcus sp. DAP 96253 ATCC 55899, 30 °C): 7.8 Units/mg cdw |
| NC(=O)C[C@H](N)C(=O)O [Asparagine, asparagine] | exceeds the ability of acrylonitrile to induce such activity |  |  |
| NC(=O)CC[C@H](N)C(=O)O [Glutamine, glutamine] | exceeds the ability of acrylonitrile to induce such activity | showed an ability to induce asparaginase I activity | Asparaginase I Level Based on Growth Medium Supplementation (asparaginase I [1]; Pseudomonas chloroaphis ATCC 43051, 30 °C): No |
| N#CCCC#N [Succinonitrile, succinonitrile] |  | showed an ability to induce asparaginase I activity |  |
